# In PubChem BioAssay AID2060620 (Molecular Pharmacology Branch, DTP, NCI, 2025):
# pIC50: −log10 of the molar value. Several values for one entry are separate records, joined by “and”; a condition that tells them apart may be missing. Identical values can stand only once.
# Test system: 328373-195-R-J1-PDC complex spheroids, viability % test/control
# Assay: Anticancer human tumor 328373-195-R-J1-PDC patient-derived head and neck squamous carcinoma cell line growth inhibition [CLK]
# Settings: for viability, T/C: stronger effect = lower value
# Excerpt: A high-throughput screen of multi-cell type tumor spheroids was designed to identify active combinations of […] and targeted small molecules. Complex spheroids include a stromal component modeled by human endothelial cells (HUVEC) and fibroblasts modeled by human mesenchymal stem cells (MSCs). The concentration ranges selected for each drug and investigational agent were based upon clinically achievable concentrations if the clinical Cmax of the agent was known.
# Compounds. The drugs and investigational agents: cirtuvivint (SM08502; NSC835563), CC-671 (NSC850746), vemurafenib (NSC761431), tapotoclax (NSC804041), sotorasib (NSC818433), adagrasib (NSC831453), MRTX-1133 (NSC836407), BAY2416964 (NSC825713), copanlisib (NSC816437), inavolisib (NSC800729), abemaciclib (NSC768073), osimertinib (NSC779217), entinostat (NSC756642), eltanexor (KPT-8602, NSC794443), venetoclax (NSC766270), ceralasertib (NSC777638), bortezomib (NSC756655), olaparib (NSC753686), talazoparib (NSC767125), alisertib (NSC759677), peposertib (NSC802822), gemcitabine (NSC613327), 5-fluorouracil (NSC19893), SN-38 (NSC673596), oxaliplatin (NSC266046), paclitaxel (NSC125973), and doxorubicin (NSC123127), were obtained from the National Cancer Institute (NCI) Developmental Therapeutics Program Chemical Repository. The FDA-approved anticancer drug set is available from the Developmental Therapeutics Program at https://dtp.cancer.gov/organization/dscb/obtaining/available plates.htm. […] The stock solutions were prepared in dimethyl sulfoxide (DMSO, Sigma-Aldrich, St. Louis, MO, cat. D2650), except for the platinum complexes which were prepared in saline (Quality Biological, Gaithersburg, MD, cat. 114-055-101), at 800-fold the tested concentration and stored at -70 degrees C prior to their use. All drugs and investigational agents were tested over a range starting from a high concentration at or near the clinical Cmax and decreasing in half-log increments. If the clinical Cmax for an agent had not been determined, the highest concentration tested was 10 microM.
# Cell Culture. All cells were maintained in an incubator at 37 degrees C and 5% CO2 with 95% humidity. The PDC lines were cultured according to standard operating procedures established by the NCI PDMR. Briefly, all PDCs were thawed and cultured in Matrigel-coated flasks prepared with a working solution of 1X Ham's F-12 nutrient mix, without supplementation (Invitrogen, Waltham, MA, cat. 11765054), 100 U/mL penicillin-streptomycin (Invitrogen, cat. 15140122), and 2.5% Matrigel (Corning Inc., Corning, NY, cat. 354248) for the first three passages. The 947758-054-R-J2-PDC line was cultured in 6B/Colon 1A media, which includes advanced DMEM/F-12 (Thermo Fisher Scientific, cat. 12634028), 10 mM HEPES (Thermo Fisher Scientific, cat. 15630080), 1X GlutaMAX supplement (Thermo Fisher Scientific, cat. 35050061), 0.1 mg/mL primocin (InvivoGen, cat. ant-pm-2), 10% defined fetal bovine serum, heat inactivated (HyClone Laboratories Inc., cat. SH30070.03HI), 1.25 mM N-Acetyl-L-cysteine (Sigma-Aldrich, cat. A9165), 10 mM nicotinamide (Sigma-Aldrich, cat. N0636), 1X B-27 supplement (Thermo Fisher Scientific, cat. 17504044), 1X N-2 supplement (Thermo Fisher Scientific, cat. 17502048), and 10 microM Y-27632 dihydrochloride (Tocris Bioscience, cat. 1254). The 876862-298-R-J1-PDC was cultured in 6E media, which includes all 6B/Colon 1A media components plus 50% L-WRN conditioned media (ATCC, cat. CRL-3276), 50 ng/mL recombinant human EGF recombinant protein (hEGF; Thermo Fisher Scientific, cat. PHG0311), 10 ng/mL recombinant human fibroblast growth factor 10 (hGFG-10; PeproTech, cat. 100-26), 1 ng/mL recombinant human fibroblast growth factor 2 (hFGF-2; PeproTech, cat. 100-18B), and 1 µM prostaglandin E2 (PGE2; Tocris, cat. 2296). The 227483-062-R1-J1-PDC line was cultured in Panc media, containing all 6E components except hFGF-2, with the addition of 500 nM SB-431542 (Selleckchem, cat. S1067) and 10 nM gastrin (Tocris, cat. 3006). […]
# 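Also: spheroids exposed to the agents for 7 days.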
smiles,measurement,setting,value
CN1CCN(c2cc(C(=O)Nc3cc4cc(-c5cnn(C)c5)ccc4cn3)ccn2)CC1,"viability, T/C",compound 0.0316 µM,102% [middle of 12 runs]
same,"viability, T/C",compound 0.1 µM,87.1% [middle of 12 runs]
same,"viability, T/C",compound 0.316 µM,30.6% [middle of 12 runs]
same,"viability, T/C",compound 1 µM,2.6% [middle of 12 runs]
same,"viability, T/C",compound 3.16 µM,1.02% [middle of 12 runs]
same,"viability, T/C",compound 10 µM,0.18% [middle of 11 runs]
same,IC50,"compound alone, run of 08/14/2023",209 nM [middle of 12 runs]
CC(CO)NC(=O)c1cc(-c2ccc(Cl)cc2)nn(-c2cnn(C)c2)c1=O (stereo not drawn),"viability, T/C",compound 0.0316 µM,101% and 99.6%
same,"viability, T/C",compound 0.1 µM,105% and 97%
same,"viability, T/C",compound 0.316 µM,105% and 113%
same,"viability, T/C",compound 1 µM,112% and 109%
same,"viability, T/C",compound 3.16 µM,112% and 119%
same,"viability, T/C",compound 10 µM,88.7% and 91.8%
same,pIC50,curve of compound,< 5.00
CC(Nc1ccc2c(c1)OCCn1cc(N3C(=O)OCC3C(F)F)nc1-2)C(N)=O (stereo not drawn) + CNC(=O)c1ccc(Nc2nc(OC3CCCC3)c3c(-c4ccc5nc(C)oc5c4)c[nH]c3n2)c(OC)c1,pIC50,"curve of first compound, second compound 0.0316 µM",5.28
same,pIC50,"curve of first compound, second compound 0.1 µM",> 7.50
same,pIC50,"curve of first compound, second compound 0.316 µM",> 7.50
same,pIC50,"curve of first compound, second compound 1 µM",> 7.50
same,pIC50,"curve of first compound, second compound 3.16 µM",> 7.50
same,pIC50,"curve of first compound, second compound 10 µM",> 7.50
same,"viability, T/C","second compound 0.0316 µM, first compound 0.0316 µM",64.5%
same,"viability, T/C","second compound 0.0316 µM, first compound 0.1 µM",63%
same,"viability, T/C","second compound 0.0316 µM, first compound 0.316 µM",56.1%
same,"viability, T/C","second compound 0.0316 µM, first compound 1 µM",61.7%
same,"viability, T/C","second compound 0.0316 µM, first compound 3.16 µM",57%
same,"viability, T/C","second compound 0.0316 µM, first compound 10 µM",41.6%
same,"viability, T/C","second compound 0.1 µM, first compound 0.0316 µM",12.4%
same,"viability, T/C","second compound 0.1 µM, first compound 0.1 µM",12.9%
same,"viability, T/C","second compound 0.1 µM, first compound 0.316 µM",11.3%
same,"viability, T/C","second compound 0.1 µM, first compound 1 µM",13.8%
same,"viability, T/C","second compound 0.1 µM, first compound 3.16 µM",10.4%
same,"viability, T/C","second compound 0.1 µM, first compound 10 µM",10.2%
same,"viability, T/C","second compound 0.316 µM, first compound 0.0316 µM",10.3%
same,"viability, T/C","second compound 0.316 µM, first compound 0.1 µM",11%
same,"viability, T/C","second compound 0.316 µM, first compound 0.316 µM",12.6%
same,"viability, T/C","second compound 0.316 µM, first compound 1 µM",9.39%
same,"viability, T/C","second compound 0.316 µM, first compound 3.16 µM",9.16%
same,"viability, T/C","second compound 0.316 µM, first compound 10 µM",11.8%
same,"viability, T/C","second compound 1 µM, first compound 0.0316 µM",12%
same,"viability, T/C","second compound 1 µM, first compound 0.1 µM",10.1%
same,"viability, T/C","second compound 1 µM, first compound 0.316 µM",9.86%
same,"viability, T/C","second compound 1 µM, first compound 1 µM",10.9%
same,"viability, T/C","second compound 1 µM, first compound 3.16 µM",10.3%
same,"viability, T/C","second compound 1 µM, first compound 10 µM",10.2%
same,"viability, T/C","second compound 3.16 µM, first compound 0.0316 µM",11.7%
same,"viability, T/C","second compound 3.16 µM, first compound 0.1 µM",11%
same,"viability, T/C","second compound 3.16 µM, first compound 0.316 µM",11.4%
same,"viability, T/C","second compound 3.16 µM, first compound 1 µM",8.89%
same,"viability, T/C","second compound 3.16 µM, first compound 3.16 µM",13.5%
same,"viability, T/C","second compound 3.16 µM, first compound 10 µM",8.5%
same,"viability, T/C","second compound 10 µM, first compound 0.0316 µM",11.8%
same,"viability, T/C","second compound 10 µM, first compound 0.1 µM",11.6%
same,"viability, T/C","second compound 10 µM, first compound 0.316 µM",10.7%
same,"viability, T/C","second compound 10 µM, first compound 1 µM",11.9%
same,"viability, T/C","second compound 10 µM, first compound 3.16 µM",13.7%
same,"viability, T/C","second compound 10 µM, first compound 10 µM",11%
CC1(C)CCC(CN2CCN(c3ccc(C(=O)NS(=O)(=O)c4ccc(NCC5CCOCC5)c([N+](=O)[O-])c4)c(Oc4cnc5[nH]ccc5c4)c3)CC2)=C(c2ccc(Cl)cc2)C1,"viability, T/C",compound 0.0316 µM,103% and 85%
same,"viability, T/C",compound 0.1 µM,88.8% and 76.7%
same,"viability, T/C",compound 0.316 µM,95.1% and 98.1%
same,"viability, T/C",compound 1 µM,90% and 84%
same,"viability, T/C",compound 3.16 µM,81.7% and 74.5%
same,"viability, T/C",compound 10 µM,25.7% and 8.47%
same,pIC50,curve of compound,5.22 and 5.31
